The source of these data is patent US6020121A (priority 1996, dated 2000).

Experiment [1] deals with Staphylococcus aureus strain 8325-4/pMP25. Description: Growth in presence of test compounds in the Agr screen. As to conditions: compared to untreated Agr+ cells; screen at 10 μg/ml final, 6 hours, 35° C.
Experiment [2] relates to Agr P3 promoter. The experiment in a line: Agr P3-β-lactamase fusion screen: β-lactamase activity. As to conditions: for Status from algorithm: Table 3; for β-Lactamase inhibition: corrected for cell density, screen at 10 μg/ml final, 6 hours, 35° C., negative = induction; for Behaviour in the P3-β-lactamase screen (in words): text.
For experiment [3], the system named is S. typhimurium chemotaxis. The experiment in a line: Chemotaxis (swarm agar plates). Type of experiment: cell-based, Salmonella typhimurium. The following applies: S. typhimurium on ribose-containing swarm agar plates. From the text: Chemotaxis: Motility has been studied in a variety of bacteria. The molecular mechanisms of motility have been best characterized in E. coli and S. typhimurium but analogs of the molecular components have been detected in both Gram-negative and Gram-positive organisms (Morgan et al., J. Bacteriol. 175:133-140 (1993)). A two-component regulatory system composed of either cheA/cheY or cheA/cheB (Stewart and Dahlquist, Chem. Rev. 87:997-1025 (1987); MacNab, Motility and Chemotaxis, pp. 732-759, In F. C. Neidhardt, et al., ed., Escherichia coli and Salmonella typhimurium: cellular and molecular biology, American Society for Microbiology, Washington, D.C. (1987)), is central to the ability of these organisms to detect and respond appropriately to chemical substances. Such response can be detected on minimal swarm agar plates containing a chemoattractant (sugars or amino acids) (J. S. Parkinson, J. Bacteriol. 126:758-770 (1976)), or a capillary assay system, in which chemoattractant is placed in a capillary tube and immersed in a liquid bacterial culture. Bacteria capable of chemotaxis will swim into the capillary and can be detected by performing viable cell counts (Adler, J. Gen. Microbiol. 74:77-91 (1973)). […]

Experiment [4] relates to RNAIII. The experiment in a line: RNAIII Northern Blot in clinical strains. As to conditions: several clinical strains of S. aureus (no. 212, 213, 215, and 217), FIG. 20. It is filed as cell-based, Staphylococcus aureus. An excerpt: FIG. 20. Northern Blots for RNAIII detection in several clinical strains of S. aureus (no. 212, 213, 215, and 217) grown in the presence of Compound 10. Untreated strain 8325-4 (Agr+) is also represented and acts as a control to show the maximal amounts of RNAIII also detected in all clinical strains grown without the test compound.

Experiment [5] relates to Staphylococcus aureus. Description: Mucin-enhanced murine peritonitis model. Type of experiment: in vivo, mice (Balb/c). The following applies: challenge dose of 10^10 cfu; 3.15 mg/kg.
For experiment [6], the system named is alpha-hemolysin. Type of experiment: cell-based, Staphylococcus aureus.
Experiment [7] relates to B. subtilis strain 168 sporulation. Description: Sporulation. Type of experiment: cell-based, Bacillus subtilis. The following applies: B. subtilis strain 168, compared to untreated controls. An excerpt:
Sporulation: Sporulation is a well-characterized event in many organisms, including Bacillus subtilis (spoIIJ/spo0A or spoIIJ/spo0F, Losick et al., Annu. Rev. Genet. 20:625-669 (1986); Smith, The initiation of sporulation,pp. 185-210, In I. Smith et al. eds., Regulation of procaryotic development, American Society for Microbiology, Washington, D.C. (1989)). It can be induced in various media (Leighton and Doi, J. Biol. Chem. 246:3189-3195 (1971); Piggot and Curtis, J. Bacteriol. 169:1260-1266 (1987)), and can be easily assayed (Nicholson and Setlow, Sporulation, germination, and outgrowth, pp. 391-429, In C. R. Harwood and S. M. Cutting eds., Molecular biological methods for Bacillus, John Wiley and Sons, Ltd., Chichester, West Sussex, England (1990)). Briefly, by heating the cells to 80-85° C. for 15-20 min, undifferentiated cells are killed while spores survive. Therefore, by determining the difference in viable cell count of control cultures versus heat treated cultures, it is possible to calculate the percent sporulation for a given culture or condition. Compounds that inhibit the signal transduction system responsible for the induction of sporulation will lower the viable cell count of the heat treated culture.

The subject of experiment [8] is RNAIII. Description: RNAIII Northern Blot.
In experiment [9] the test system is protein A. The experiment in a line: Protein A expression immunoblot. It is filed as cell-based, Staphylococcus aureus. The following applies: Table 4; relative to Agr- mutant cells. The method, then:
FIG. 18. Immunodetection of staphylococcal protein A in treated and untreated cultures. Cells were grown in presence of compounds 1, 2, or 3 to a similar density (O.D. 600 nm--0.5-0.6). Cells were lysed using lysostaphin prior to separation of cell surface proteins by SDS-PAGE. After electrophoretic transfer of proteins from the gel onto a nitrocellulose membrane, detection of protein A on the blot was possible by using a specific anti-protein A antibody and a second antibody that allowed chemiluminescent detection of immune complexes. The chemiluminescence was captured by autoradiography.
Protein A. Protein A expression is assayed by immunoblots of SDS-Page separated total cell proteins (Patel et al., Infection and Immunity 55:3103-3110 (1987)).
Background: A western blot detects proteins with antibodies after separation by electrophoresis.

Entries after “also recorded” stand apart in the source; their conditions may differ. Where a SMILES comes first, the peptide text is derived from it. The star is where a group is joined. Cbz = O=C(OCc1ccccc1)*; Bz = O=C(c1ccccc1)*

As to `CC(=O)OC1CCC2(C)C(CC(=O)C3(C)C2CCC2(C)C(c4ccoc4)OC(=O)C4OC423)C1(C)C` (stereo not shown) [Compound 2], the Growth in experiment [1] is listed as 122%. Further, in experiment [2], the Status from algorithm result was “Active” and the β-Lactamase inhibition is 84%.

For `O=C1OC(c2cccnc2Sc2ccc(Cl)cc2)=NC1=Cc1ccc(C(F)(F)F)cc1` [Compound 18], in experiment [1], the Growth was 89%. Moreover, in [2], the Status from algorithm result is “Active” and the β-Lactamase inhibition is given as 75%.

With `CC(CS)=NOC(=O)c1c(-c2ccccc2)noc1C` [Compound 11], in experiment [3], the “chemotaxis effect (in words)” value was “deregulated chemotaxis and enhanced swarm diameters of S. typhimurium; also recorded: not a chemi-attractant or -repellant itself”. Further, the Growth in [1] is 104%. In experiment [2], the Status from algorithm result is “Active” and the β-Lactamase inhibition is given as 77%.

For the compound `CCCc1c(C(=O)Nc2cccc(C(F)(F)F)c2)cnn1-c1ccccc1` [Compound 9], the Growth in experiment [1] is 91%. Besides, in [2], the Status from algorithm result is listed as “Active” and the β-Lactamase inhibition turned out to be 86%.

Turning to `O=C(Nc1ccccc1)OC(Cc1ccccc1)C(F)(F)F` (stereo not shown) [Compound 10], the Growth in experiment [1] came out at 107%. In [2], the Status from algorithm entry is on record as “Active” and the β-Lactamase inhibition was 84%. The “RNAIII expression in clinical strains (in words)” value in [4] was “greatly reduced”.

Regarding `CN[C@H](CC(C)C)C(=O)N[C@H]1C(=O)N[C@@H](CC(N)=O)C(=O)N[C@H]2C(=O)N[C@H]3C(=O)N[C@H](C(=O)N[C@H](C(=O)O)c4cc(O)cc(O)c4-c4cc3ccc4O)[C@H](O)c3ccc(c(Cl)c3)Oc3cc2cc(c3O[C@@H]2O[C@H](CO)[C@@H](O)[C@H](O)[C@H]2O[C@H]2C[C@](C)(N)[C@H](O)[C@H](C)O2)Oc2ccc(cc2Cl)[C@H]1O` [vancomycin], in experiment [5], the “treatment of infection (in words)” value was “treatable”. Further, the “alpha-hemolysin activity (in words)” value in [6] is “did not inhibit alpha-hemolysin activity”. In addition, the “Behaviour in the P3-β-lactamase screen (in words)” value (from here on “Behaviour”) in experiment [2] is listed as “do not behave as hits”.

As for `O=C(O)c1cn(C2CC2)c2cc(N3CCNCC3)c(F)cc2c1=O` [ciprofloxacin, reference compound], the “alpha-hemolysin activity (in words)” value in experiment [6] is given as “did not inhibit alpha-hemolysin activity”. The “Behaviour” value in [2] is given as “do not behave as hits”.

As to `C=C1C(=O)OC2CC1C(OC(C)=O)CC(C)=CCCC(C)=CCCC2(C)O` (stereo not shown) [Compound 15], the Growth in [1] was found to be 101%. In experiment [2], the Status from algorithm result was “Active” and the β-Lactamase inhibition was found to be 76%.

Turning to `Cc1cc(C(F)(F)F)cc(N(C)NC2OC(=O)c3ccccc32)n1` (stereo not shown) [Compound 12], the Growth in experiment [1] turned out to be 124%. In experiment [2], the Status from algorithm result is recorded as “Active” and the β-Lactamase inhibition was found to be 76%.

In the case of `CC(C)CC(NC(=O)OCc1ccccc1)C(=O)NC(Cc1ccc(O)cc1)C(N)=O` (stereo not drawn) [Compound 7] (Cbz-Leu-Tyr-NH2; configuration not given here), the Growth in experiment [1] came to 103%. In experiment [2], the Status from algorithm result was “Active” and the β-Lactamase inhibition was 87%.

In the case of `Cc1ccc(NN=C(C#N)C(=O)c2cc(C)nn2C(C)(C)C)cc1` [Compound 13], in [1], the Growth is recorded as 111%. In addition, in experiment [2], the Status from algorithm entry is on record as “Active” and the β-Lactamase inhibition was determined as 75%.

For the compound `CC(=O)OC1CC2C(C)(C)CCCC2(C)C2CCC3(C)C(=CC(=O)OC3c3ccoc3)C12C` (stereo not shown) [Compound 3], the “decrease in percent sporulation” value in experiment [7] was “more than 50%”. The Growth in experiment [1] was determined as 70%. In experiment [2], the Status from algorithm result was “GR and Active”; the β-Lactamase inhibition was 83%.

For the compound `O=S(=O)(Nc1cc(C(F)(F)F)cc(C(F)(F)F)c1)c1cccc2nsnc12` [Compound 14], the “decrease in percent sporulation” value in experiment [7] was “more than 50%”. For the same compound, in experiment [1], the Growth was found to be 94%. For the same compound, in experiment [2], the Status from algorithm result was “Active” and the β-Lactamase inhibition turned out to be 77%.

`CCCCCCCCCCCC(=O)OCC(O)CO` (stereo not shown) [GML, Glycerol monolaureate, reference compound]: the “RNAIII production (in words)” value in experiment [8] (FIGS. 14 and 15) is on record as “showed no effect on RNAIII; also recorded: has no effect on RNAIII production”. For the same compound, the “Behaviour” value in experiment [2] was “did not qualify as a hit in the screen”.

`O=C(O)/C=C/c1ccc(Sc2ccc(Br)cc2)c([N+](=O)[O-])c1` [Compound 16]: in experiment [1], the Growth is 106%. Further, in experiment [2], the Status from algorithm result was “Active” and the β-Lactamase inhibition came out at 78%.

Regarding `CC(C)CC(NC(=O)c1ccccc1)C(=O)NC(Cc1ccc(O)cc1)C(N)=O` (stereo not drawn) [Compound 8] (Bz-Leu-Tyr-NH2; configuration not given here), in [1], the Growth is recorded as 101%. In experiment [2], the Status from algorithm result is reported as “Active” and the β-Lactamase inhibition is 84%.

On to `CC(=O)OC1CCC2(C)C(CCC3C4CC5OC6(CCC(C)CO6)C(C)C5C(C)=C4CC32)C1` (stereo not shown) [Compound 6], for which, in experiment [1], the Growth is given as 72%. The “RNAIII production (in words)” value in experiment [8] (FIGS. 14 and 15) was “allowed overexpression of RNAIII”. For the same compound, the “RNAIII production (in words)” value in experiment [8] (FIGS. 14 and 15, listed as compound 6) is on record as “marked increase in RNAIII”. The “Protein A expression” value in [9] is “[+]”. In experiment [2], the Status from algorithm entry is “GR and Inducer”; the β-Lactamase inhibition is -111%; the “Behaviour” value is reported as “enhance the production of β-lactamase; also recorded: showed inducer rather than inhibitor activity”. The “Behaviour” value in experiment [2] (listed as compound 6) is “increased activity of the β-lactamase reporter”.

Regarding `CN(C)/C=C/C(=O)c1sc(SCc2ccc(Cl)cc2)c2c1CC(C)(C)CC2=O` [Compound 17], the Growth in experiment [1] is 87%. Moreover, in experiment [2], the Status from algorithm result is listed as “Active” and the β-Lactamase inhibition is listed as 83%.

Turning to `C=C(C)C=CCC1C(C)(O)CCC2C(C)(C)CCCC21C` (stereo not shown) [Compound 1], the Growth in experiment [1] stood at 105%. Besides, in experiment [2], the Status from algorithm result is reported as “Active” and the β-Lactamase inhibition stood at 75%.
